According to patent US12569563B2, “Selective HDAC6 degraders and methods of use thereof” (DANA-FARBER CANCER INSTITUTE, INC., priority 2019, dated 2026):

Molecular target: T1, CRBN (Homo sapiens, UniProt Q96SW2)
T1 construct: endogenous in cells; host or cells: Flp-In 293 cells stably expressing BRD4BD2-eGFP-P2A-mCherry
Assay: Cellular CRBN engagement assay (competition with dBET6, BRD4BD2-eGFP reporter)
Format: cell-based
Settings: Flip-In 293 BRD4BD2-eGFP cells, 100 nM dBET6, 5 h
Excerpt: The cellular CRBN engagement assay measures the cellular binding affinity which is the combination of the compound's cell permeability and their binding affinity to CRBN. This is done by measuring the ability of thalidomide-based degrader molecules to compete with pan-BET bromodomain degrader dBET6 (Nowak et al., Nat. Chem. Biol. 14:706-714 (2018)) for CRBN binding in cells. If no degrader compound is present in the cell, BRD4BRD2-eGFP is degraded by dBET6 via the proteasome system. […]
Cells were seeded at 30-50% confluency in either 24, 48 or 96 well plates (3524, 3548, 3596 respectively, Costar) a day before compound treatment. The inventive compounds were titrated in the presence of 100 nM dBET6 and then were incubated with cells for 5 h following trypsinization and resuspension in DMEM media, transferred into 96-well plates (353910, Falcon®) and analyzed by flow cytometer (Guava® easyCyte™ HT, Millipore®). Signal from at least 3000 events per well was acquired and the eGFP and mCherry florescence monitored. Data was analyzed using FlowJo® (FlowJo®, LCC). Forward and side scatter outliers, frequently associated with cell debris, were removed leaving >90% of total cells, followed by removal of eGFP and mCherry signal outliers, leaving 88-90% of total cells creating the set used for quantification. […]

CN(C(=O)CCCCCCCNc1cccc2c1C(=O)N(C1CCC(=O)NC1=O)C2=O)c1ccc(NC(=O)CCCCCCC(=O)NO)cc1 (stereo not shown) [Compound 3, N^1-(4-(8-((2-(2,6-dioxopiperidin-3-yl)-1,3-dioxoisoindolin-4-yl)amino)-N-methyloctanamido)phenyl)-N^8-hydroxyoctanediamide]
IC50: 1630 nM
